In patent publication US20100260680A1, “NOVEL BONE MASS INCREASING AGENT” (ORIENTAL YEAST CO., LTD., priority 2007, published 2010):
Bridges are numbered along the chain shown (N, C = ends). Where no end group is shown, it is not given here.

Legend:
MAP kinase p38 = test: Western blotting of p38 phosphorylation in MC3T3-E1 cells; format: cell-based, mouse; settings: 200 μM peptide D
Experimental: MC3T3-E1 cells mixed with 10% FBS+αMEM (SIGMA) were seeded on a 6-well plate (7.5×10^4 cells/well). […] The medium was removed at the respective time points shown in the relevant figures. PBS was added to the cells, and the cells were collected with a scraper (Falcon). A cell pellet was obtained via centrifugation at 1200 rpm for 5 min at 4° C. RIPA buffer (100 μL) was added to the collected pellet, for dissolution of the cellular membrane. Further, the resultant was centrifuged under conditions of 14500 rpm for 25 min at 4° C. The supernatant was collected as a cell extract. A portion of the cell extract was used for quantification of the protein concentration with the use of a BCA protein assay kit (PIERCE). For SDS-PAGE, a sample buffer in an amount that was ¼ that of the cell extract (Fermentas) was added thereto, followed by heating at 95° C. for 5 min. The prepared sample was applied in an amount of 7.5 or 10 μg to 10% polyacrylamide gel (BioRad), followed by electrophoresis at 170 V for 1 hour. After electrophoresis, the electrophoresed sample was transferred to a PVDF membrane (Millipore) at 80 mA for 40 min. The membrane was shaken in a blocking solution (Nacalai) at room temperature for 1 hour and then a primary antibody was added thereto, followed by shaking at room temperature for 1 hour at 4° C. for 12 hours. […]

mouse tibia = test: DNA microarray analysis of tibia of mice given peptide D; format: in vivo; settings: peptide D acetate 10 mg/kg s.c. three times daily for 5 days; n=2
Experimental: Total RNA (2 μg) extracted from the tibia of each mouse described in Example 24 was used for a DNA microarray (each group: n=2). According to a standard method, DNA microarray analysis (Mouse Genome 430 2.0 Affymetrix) was carried out. In addition, scanning was performed with a GeneChip Scanner 3000 (Affymetrix 690036) and digitalization was performed using the Gene Chip Operating Software ver. 1.4.

Human osteoblasts = test: ALP activity determination in human osteoblasts; format: cell-based; settings: antibodies 100 ng/mL or 1 ng/mL; culture for 5 or 6 days
Experimental: Seven days after differentiation, the culture supernatant was removed from each plate and the cells were fixed with an acetone/ethanol solution. The ALP activity was determined using p-nitrophenyl phosphate as a substrate. Specifically, a carbonate buffer (5 mM MgCl2, 50 mM NaHCO3) containing p-nitrophenyl phosphate (Nacalai) (1 mg/mL) was added to each well (100 μL/well), followed by incubation at 37° C. Then, the OD value at 405 nm was determined with the use of a microplate reader (BMG Labtech) for each well.
The reagents such as anti-RANKL polyclonal antibodies and anti-RANKL monoclonal antibodies used in this Example were the same as those used in Example 4. In addition, an anti-RANKL monoclonal antibody ((C): clone 12A380) (ALEXIS), human OPGFc, and human RANKFc (R&D)) were used. ALP activity determination was carried out as in Example 1. All of the above antibodies are antibodies against mouse RANKL.
Human osteoblasts were seeded on a 96-well plate (3.1×10^3/well) and a 48-well plate (7.65×10^3/well). After cell adhesion had taken place, differentiation was carried out using a medium containing 5 mM β-glycerophosphoric acid. The antibodies were added (100 ng/mL or 1 ng/mL) upon differentiation. Culture was carried out for 5 or 6 days, followed by ALP activity determination.

C2C12 cells = test: ALP activity determination in C2C12 cells; format: cell-based, mouse; settings: 6 days
C57BL/6CrjCrlj mice = test: Peptide D administration to mice: bone density (SXA), pQCT and μCT analysis of femur; format: in vivo, mouse
Experimental: A synthetic peptide was used for experiments. Synthetic peptide D is a cyclic peptide comprising the amino acid sequence represented by SEQ ID NO: 7, which consists of 9 amino acids and contains two cysteine residues binding to each other via a disulfide bond. […] The synthetic peptide was dissolved in 10% DMSO (Nacalai)/PBS to a concentration of 1 mg/ml.
Subcutaneous administration of peptide D was carried out in a dose of 10 mg/kg at 8:00, 14:00, and 20:00 (three times daily) for 5 days. 5% DMSO/PBS was administered to the control group. Mice were dissected 12 hour after the completion of administration for 5 days and subjected to exsanguination. Thereafter, the femur and the tibia were collected from each mouse. The whole blood of each mouse was left at room temperature for 1 hour and then centrifuged under conditions of 5000 rpm and 4° C. for 5 min. The serum was collected in a new tube. The femur and the tibia of each mouse were fixed with cold 70% ethanol.
Each femur fixed with ethanol was subjected to single energy X-ray absorptiometry (SXA) analysis (DCS-600EX-IIIR DXA for animals, ALOKA) for determination of bone density, bone mineral content, and bone surface area. The full length of each bone was divided into 20 regions. The bone density for each region was determined and actions of the peptide in each region were analyzed.
Bone structure analysis was carried out by peripheral quantitative computed tomography (hereinafter abbreviated as pQCT) and micro-computed tomography (hereinafter abbreviated as μCT). Scan-Xmate-A080 (Comscantecno Co., Ltd.) was used for μCT and XCT-Research SA+(Stratec Medizintechnik GmbH) was used for pQCT. The dedicated software (3D-BON (RATOC)) was used for preparation of three-dimensional structural image and trabecular structure analysis with the use of μCT data. In addition, for analysis by pQCT, a region with a bone density of 395 mg/cm^3 or less was determined to be cancellous bone and a region with a bone density of 690 mg/cm^3 or more was determined to be cortical bone.

[1] = μCT trabecular structure measurement

peptide D: cyclic peptide of SEQ ID NO: 7, 9 amino acids, two cysteine residues bound via a disulfide bond; binds to RANKL (YCWSQYLCY; disulfide 2-8 (inferred))
p38 phosphorylation (MAP kinase p38; 12 hours after the addition): significant p38 phosphorylation | p38 phosphorylation (MAP kinase p38; within a short period of time after the addition): no significant changes | microarray signals of OC, ALP, CoL1 α2, PDGFc, PDGFRβ and IGF-1 in tibia (mouse tibia): significantly higher signals | ALP activity (Human osteoblasts): significant increase in ALP activity | ALP activity (C2C12 cells; 50 μM peptide D alone): actions of ALP activity enhancement were not observed | increase in the ALP activity relative to BMP-2 alone (C2C12 cells; 50 μM peptide D combined with 100 ng/mL BMP-2): at least 5 times | bone mineral content (SXA, femur) (C57BL/6CrjCrlj mice; 10 mg/kg s.c. 3 times daily for 5 days): increase in bone mineral content | bone density (SXA, femur) (C57BL/6CrjCrlj mice; 10 mg/kg s.c. 3 times daily for 5 days, p<0.05 vs control group): significant increase in bone density | bone density of each region (SXA20 partition analysis) (C57BL/6CrjCrlj mice; 6th to 9th regions from the distal end of the femur, p<0.05 vs control group): significant increase in bone density | bone resorption inhibition actions (C57BL/6CrjCrlj mice; based on trabecular structure measurement by μCT): weak actions | intimal circumference of the cortical bone (C57BL/6CrjCrlj mice; region 5 mm away from the distal end of the femur): shortened | cortical bone density (pQCT) (C57BL/6CrjCrlj mice; region 5 mm away from the distal end of the femur, p<0.05 vs control group): significant increase in cortical bone density | cancellous bone content (μCT) (C57BL/6CrjCrlj mice; site 2 mm away from the distal end of the femur): increased | BV/TV of the cancellous bone (C57BL/6CrjCrlj mice; [1]): increased | trabecular width of the cancellous bone (C57BL/6CrjCrlj mice; [1]): increased
